# Measured values: patent US20040248887A1, “Inhibitors of cathepsin S” (IRM LLC, priority 2003, published 2004)
# Target: Cathepsin S (Homo sapiens, UniProt P25774)
# Assay: Cathepsin S inhibition, fluorogenic peptide substrate kinetic assay
# Type: biochemical
# Settings: Table II; Cathepsin S inhibition constant, pH5.5; read-out: Ki Cat. S
# Source text: “Inhibition constant”, Ki, is the dissociation constant of the enzyme-inhibitor complex, or the reciprocal of the binding affinity of the inhibitor to the enzyme. […] The inhibited rates are then fit by nonlinear regression to the following equation: [formula]
# where vo is the initial rate of substrate processing in the absence of inhibitor, v; is the initial rate of substrate processing at a concentration [I] of inhibitor, Km is the steady state Michaelis constant (Fersht, A. Structure and Mechanism in Protein Science. New York, W.H. Freeman and Company, 1999), and [S] is the concentration of competitive substrate.
# The assumption being made for the classical inhibition described above is that the free inhibitor concentration is equal to the total inhibitor concentration.
# The inhibition constant, Ki, can be determined from the apparent inhibition constant, Ki^app, for competitive inhibitors by using the following relationship: [formula]
# The optimal substrate for cathepsin S, acetyl-histidine-proline-valine-lysine-amino carbamoyl coumarin, was identified from screening a combinatorial library of fluorogenic peptide substrates (Harris, J. L., B. J. Backes, et al., Proc Natl Acad Sci USA 2000, 97(14), 7754-9). Kinetic measurements are performed in a total reaction volume of 30 μl in 384-well microtiter plates. […] The reactions are initiated by adding the substrate, acetyl-histidine-proline-valine-lysine-amino carbamoyl coumarin, to a final concentration of 50 μM. The rate of substrate hydrolysis is measured by monitoring the increase in fluorescence at an excitation wavelength of 380 nm and an emission wavelength of 450 nm that results from cleavage of the aniline bond in the substrate by the enzyme. The apparent inhibition constants for the compounds are determined from the enzyme progress curves (Kuzmic, P., K. C. Elrod, et al., Anal Biochem 2000, 286(1), 45-50) and are then used to calculate the inhibition constants for competitive inhibitors.
# Cathepsin S, sequence (P25774 115-331, species assumed): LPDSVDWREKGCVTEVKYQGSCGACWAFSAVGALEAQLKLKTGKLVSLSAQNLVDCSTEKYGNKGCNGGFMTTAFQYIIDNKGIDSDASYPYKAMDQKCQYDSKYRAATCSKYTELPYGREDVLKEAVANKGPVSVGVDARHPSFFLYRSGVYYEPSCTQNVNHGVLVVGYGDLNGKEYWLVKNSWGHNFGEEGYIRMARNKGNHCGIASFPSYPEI
row,SMILES,Ki [µM]
1,"C[C@@H](CNc1ccc(OC(F)(F)F)cc1)NC(=O)[C@H](CC1CCCCC1)NC(=O)c1cc(-c2ccc(F)cc2)no1 [Compound 146, 3-(4-Fluoro-phenyl)-isoxazole-5-carboxylic acid {2-cyclohexyl-1-(S)-[1-(S)-methyl-2-(4-trifluoromethoxy-phenylamino)-ethylcarbamoyl]-ethyl}-amide]",< 0.1
2,"C[C@@H](CNc1ccc(OC(F)(F)F)cc1)NC(=O)[C@H](CC1CCCCC1)NC(=O)O[C@@H]1CCNC1 [Compound 187, {2-Cyclohexyl-1-(S)-[1-(S)-methyl-2-(4-trifluoromethoxy-phenylamino)-ethylcarbamoyl]-ethyl}-carbamic acid pyrrolidin-3-(R)-yl ester]",< 10
3,"C[C@@H](CN1c2ccc(F)cc2CC1(C)C)NC(=O)[C@H](CC1CCCCC1)NC(=O)C1CCOCC1 [Compound 139, Tetrahydropyran-4-carboxylic acid {2-cyclohexyl-1-(S)-[2-(5-fluoro-2,2-dimethyl-2,3-dihydro-indol-1-yl)-1-(S)-methyl-ethylcarbamoyl]-ethyl}-amide]",< 0.1
4,"C[C@@H](CN1CCc2cc(F)ccc21)NC(=O)[C@H](CC(C)(C)C)NC(=O)c1ccnnc1 [Compound 178, Pyridazine-4-carboxylic acid {1-(S)-[2-(5-fluoro-2,3-dihydro-indol-1-yl)-1-(S)-methyl-ethylcarbamoyl]-3,3-dimethyl-butyl}-amide]",< 0.1
5,"COc1ccc(S(=O)(=O)N2CCC(C(=O)N[C@@H](CC3CCCCC3)C(=O)NCCN3CCc4cc(F)ccc43)CC2)cc1 [Compound 57, 1-(4-Methoxy-benzenesulfonyl)-piperidine-4-carboxylic acid (S)-{2-cyclohexyl-1-[2-(5-fluoro-2,3-dihydro-indol-1-yl)-ethylcarbamoyl]-ethyl}-amide]",< 1
6,"Cc1cccc(C(=O)N[C@@H](CC(C)C)C(=O)N[C@@H](CCC(N)=O)CN2CCc3cc(F)ccc32)c1 [Compound 44, (S,S)-N-{1-[3-Carbamoyl-1-(5-fluoro-2,3-dihydro-indol-1-ylmethyl)-propylcarbamoyl]-3-methyl-butyl}-3-methyl-benzamide]",< 0.1
7,"COc1cccc(C(=O)N[C@@H](CC(C)(C)C)C(=O)N[C@@H](CC(=O)OC(C)(C)C)CN2CCc3cc(F)ccc32)c1 [Compound 160, 4-(5-Fluoro-2,3-dihydro-indol-1-yl)-3-(S)-[2-(S)-(3-methoxy-benzoylamino)-4,4-dimethyl-pentanoylamino]-butyric acid tert-butyl ester]",< 0.1

# More lines, now with the values ahead:
row,Ki [µM],SMILES
1,< 1,"Cn1cnc(C(=O)N[C@@H](CC2CCCCC2)C(=O)NCCN2CCc3cc(F)ccc32)c1 [Compound 63, 1-Methyl-1H-imidazole-4-carboxylic acid (S)-{2-cyclohexyl-1-[2-(5-fluoro-2,3-dihydro-indol-1-yl)-ethylcarbamoyl]-ethyl}-amide]"
2,< 0.1,"O=C(N[C@@H](CC1CCCCC1)C(=O)N[C@@H](CO)CN1CCc2cc(F)ccc21)c1ccc(-c2cccc(C(F)(F)F)c2)o1 [Compound 153, 5-(3-Trifluoromethyl-phenyl)-furan-2-carboxylic acid {2-cyclohexyl-1-(S)-[2-(5-fluoro-2,3-dihydro-indol-1-yl)-1-(R)-hydroxymethyl-ethylcarbamoyl]-ethyl}-amide]"
3,< 1,"Cc1cc(NC[C@H](C)NC(=O)[C@H](CC2CCCCC2)NC(=O)c2ccc(-c3cccc(F)c3)o2)no1 [Compound 133, 5-(3-Fluoro-phenyl)-furan-2-carboxylic acid {2-cyclohexyl-1-(S)-[1-(S)-methyl-2-(5-methyl-isoxazol-3-ylamino)-ethylcarbamoyl]-ethyl}-amide]"
4,< 1,"C[C@@H](CNc1cc(F)ccc1Cl)NC(=O)[C@H](CC1CCCCC1)NC(=O)c1ccc(-c2cccc(F)c2)o1 [Compound 112, 5-(3-Fluoro-phenyl)-furan-2-carboxylic acid {1-(S)-[2-(2-chloro-5-fluoro-phenylamino)-1-(S)-methyl-ethylcarbamoyl]-2-cyclohexyl-ethyl}-amide]"
